The text below walks through data of US10889543B2, “Fine-tune modulators of neuronal excitability for neuropsychiatric disorders” (THE BOARD OF REGENTS OF THE UNIVERSITY OF TEXAS SYSTEM, priority 2016, dated 2021).

For one assay, the target named is T1, Nav1.6 C-tail (Homo sapiens, UniProt Q9UQD0).
T1 construct: FGF14WT and Nav1.6 C-tail were immobilized; made in house
Nature of the assay: Surface plasmon resonance spectroscopy, immobilized Nav1.6 C-tail. The format is binding. As to conditions: SPR, 25° C., 10-200 μM. As for the experimental part:
(§1) Surface Plasmon Resonance Spectroscopy. SPR experiments were performed on a Biacore T100 instrument (Biacore GE), and the interaction between FGF14 to Nav1.6 channel was studied at 25° C. To analyze the effects of ZL0181 on channel binding, FGF14WT and Nav1.6 C-tail were immobilized using acetate 5.5 with amine coupling kit on CM5 sensor chip, and obtaining RU 3000 and 4500 respectively. No protein was coupled to the control flow channel of the chip. ZL0181 (5-200 μM) in HBS-P+(50 μl/min) buffer ([…], 150 mM NaCl, 0.005% (v/v) P20), pH 7.4 were injected over the chip for 180 s. Next, HB S-P+ buffer without protein were passed over the chip for 180 s to monitor dissociation, and the chip surface was then regenerated with NaCl (200 mM). For each injection of ZL0181 binding to the FGF14WT or the Nav1.6, the nonspecific responses were subtracted from the responses obtained for control prior to data analysis. Maximal equilibrium responses were plotted against the concentrations of ZL0181, and the equilibrium dissociation constant (KD) was calculated from the fitted saturation binding curve. Fitted binding curves were judged to be accurate based on the distribution of the residuals (even and near zero). Graphs were plotted in GraphPad Prism 6 Software (La Jolla, Calif.).
(§2) The role of ZL0181 was further determined by surface plasmon resonance spectroscopy. […]
(Surface plasmon resonance follows binding to a sensor surface in real time, without labels.)

The next assay deals with T2, FGF14 (Homo sapiens, UniProt Q92915).
T2 construct: made in house
T2 sequence (Q92915 64-252 isoform Q92915-2 limits assumed): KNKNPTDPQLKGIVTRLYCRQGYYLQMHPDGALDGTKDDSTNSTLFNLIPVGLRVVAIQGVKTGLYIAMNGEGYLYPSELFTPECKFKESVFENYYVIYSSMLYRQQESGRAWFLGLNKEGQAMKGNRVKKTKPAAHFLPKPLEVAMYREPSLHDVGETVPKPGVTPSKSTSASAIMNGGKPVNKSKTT
The assay is described as follows: Surface plasmon resonance spectroscopy, immobilized FGF14. The format is binding. To be noted: SPR, 25° C., 10-200 μM. As for the experimental part:
as §1, §2

Assay [1] relates to nucleus accumbens medium spiny neurons. Nature of the assay: Ex vivo whole-cell patch clamp of neuronal firing in brain tissue slices. The assay is classed as cell-based, mice. From the text:
It is known in the art that nucleus accumbens plays a critical role in reinforcement-associated learning and in addiction-related behavior. See e.g., Woodruff-Pak, D. S., et al., Behavioral neuroscience 120:229-240 (2006); McKinney, B. C., et al., Genes, brain, and behavior 7:629-638 (2008). It has been shown that Nav1.6 channels are expressed at the nucleus accumbens medium spiny neurons. Shah, B. S., et al., The Journal of Physiology 534(Pt 3):763-776 (2001). The effect of ZL0181 on neuronal firing along with active and passive properties was tested using whole-cell patch clamp techniques in brain tissue slices. Nucleus accumbens medium spiny neurons (MNS) were treated with either DMSO (0.05×) or ZL0181 (50 μM) for one hour in an incubation chamber before being transferred to submerge experimental chamber perfused with oxygenated artificial cerebrospinal fluid for patch clamp experiments. […] For instance, at current step of 150 pA the number of spikes in DMSO treated MSNs was 18.4±1.3, n=8 versus 6.9±2.3, n=10 in ZL0181 treated MSNs; p<0.005 with Student t-test (FIG. 4B, Chart C). To test the mechanisms underlying neuronal firing reduction and related to sodium channels activity, action potential voltage and current thresholds were measured.
Coronal nucleus accumbens slices were prepared from FGF14−/− or wild type mice either treated with ZL0181 or vehicle control. Evoked action potentials were recorded in regular ASCF solution at 30-31° C. using Axopatch 200B and 700B amplifiers (Molecular Devices, Union City, Calif.). Recordings were filtered at 2 kHz and digitized at 10-20 kHz using a Digidata 1320 analog-to-digital interface and pClamp9 acquisition software (Molecular Devices, Union City, Calif.). Patch pipettes (4-6 MΩ) were prepared from borosilicate glass using a Narishige PC-10 vertical puller (Narishige International Inc., East Meadow, N.Y.). The extracellular bath solution contained (in mM) 130 NaCl, 3.5 KCl, 10 glucose, 1.5 MgCl2, 1.4 CaCl2, 23 NaHCO3, 1.25 NaH2PO4, osmolarity 300-310, pH 7.4, and the intracellular recording solution contained (in mM) 120 CH3KO3S, 10 KCl, 10 HEPES, 10 glucose, 2 MgCl2, 0.5 EGTA, 2 MgATP, and 0.5 NaGTP, osmolarity 280-290, pH 7.3. Upon forming a whole-cell connection, artificial cerebrospinal fluid containing 10 μM bicucilline (Tocris Bioscience), 30 μM NBQX (Tocris Bioscience), and 100 μM D-APV (Tocris Bioscience) was perfused into the bath solution in order to block synaptic transmission.
After seal formation and membrane rupture, action potential trains were evoked with current step protocol injections of 10 pA increment.
For orientation: In patch-clamp work, channel activity is measured electrically.

The structures appear in SMILES notation. Residues, ends and D or L forms follow the SMILES beside them. *: point of attachment. Cbz = O=C(OCc1ccccc1)*; Boc = CC(C)(C)OC(=O)*

T1 sequence (Q9UQD0 1797-1980 limits assumed): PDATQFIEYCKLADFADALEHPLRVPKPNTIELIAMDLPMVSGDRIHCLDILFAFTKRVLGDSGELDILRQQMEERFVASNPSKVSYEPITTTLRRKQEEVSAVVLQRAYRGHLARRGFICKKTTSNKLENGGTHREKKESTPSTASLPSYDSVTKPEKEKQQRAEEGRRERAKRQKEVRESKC

One may read the Kd as the concentration at which binding is half-saturated. As for `CC(C)C[C@H](NC(=O)[C@H](Cc1ccccc1)NC(=O)OCc1ccccc1)C(=O)N1CCC[C@H]1C(=O)N[C@@H](CCCCNC(=O)OC(C)(C)C)C(N)=O` [ZL0181, Z-Phe-Leu-Pro-Lys(Boc)-NH2] (Cbz-FLPK(Boc)-NH2), the results for the Kd on Nav1.6 C-tail and at FGF14 were 212 µM and 13 µM, respectively. This compound also showed a number of spikes in assay [1] (50 μM for one hour, current step of 150 pA, n=10, DMSO 18.4±1.3) of 6.9±2.3. Besides, the “action potential current threshold” value in assay [1] (50 μM for one hour, n=10, DMSO 72.5±11.5) was 135.8±12.5 pA. Moreover, the “action potential voltage threshold” value in assay [1] (50 μM for one hour, n=10, DMSO −35.9±2.3) is reported as −27.8±2 mV. Besides, the “further neuronal active and passive properties” value in assay [1] (50 μM, compared to DMSO control) was “no significant changes”.
